The term IC50 denotes the point on the concentration scale where inhibition reaches its midpoint.

Structures are written as SMILES. Where two headings read alike, the source gives them in different places.

The values that follow come from PMC11793105, “A kalihinol analog disrupts apicoplast function and vesicular trafficking in P. falciparum malaria” (Science (New York, N.Y.), 2024).

For data set [1], the system named is P. falciparum 3D7 (MRA-102, drug sensitive). Nature of the data set: SYBR Green I growth inhibition assay, 3D7. The data set is classed as cell-based. Particulars: Plasmodium falciparum. The protocol: Fig. 1. […] (B) SYBR Green–based dose response assays were conducted on early-ring stage parasites (6 hours after invasion). […] 3D7 WT (blue), NF54 (green), drug-resistant strains Dd2 (red), HB3 (black), W2 (gray), and D10-ACP-GFP (purple) lines (Sigmoidal, 4PL, X is concentration, n ≥ 3, nonlinear regression, CI: 95%). (C) Schematic diagram of the development of P. falciparum after two consecutive erythrocytic cycles. The time points at which MED6-189 was introduced are depicted in green. HPS, hours post synchronization. […] The images depict various developmental stages of the parasite’s intraerythrocytic life cycle. Bordered images represent time points when drug was first introduced (n = 3 biological replicates, P < 0.05).
Detailed information on materials and methods is available in the supplementary materials. […] P. knowlesi assays were quantitatively measured by flow cytometry using SYBR Green I and Mitrotracker Deep Red, as previously described ([84], [85]), on a Beckman Coulter CytoFLEX. […]
P. falciparum in vitro SYBR green fluorescence-based assays The anti-malarial activity of individual analogues were evaluated in-vitro against P. falciparum 3D7 (MRA-102, drug […]
green-I based fluorescence assay. Parasite growth rate and stages of development were determined via microscopy through Giemsa-stained smears of the cultures. […]

Data set [2] can be described thus: Time course stability to conditions of varying pH (mass spectrometric assay). The data set is classed as physicochemical. Particulars: aqueous buffers pH 2-7, room temperature, 10 min to 16 h; stable down to pH 4. As for the experimental part:
removed under reduced pressure in a rotary evaporator then under high vacuum to afford bis-formamide GB-209-3 as a colorless oil that solidified upon standing (5.2 mg, 96% yield).
Note: GB-209-3 was observed as four different amide rotamer ic species (estimated ratio = 54:35:7:4) under ambient conditions, complicating NMR spectroscopic analysis:
Isonitriles are known to be somewhat reactive functional groups. While previous studies […]
stability,3 we also wanted to account for the potential stomach-acid-catalyzed hydrolysis of the isonitriles in the course of in vivo experiments. We developed a mass spectrometric assay to understand the acid stability of the isonitriles with respect to hydrolysis to the corresponding formamides. […]
Supporting Table 1. a. Ionization (ES+) and b. inlet parameters for quantification of MED6-189 and formamides GB-209-2, and GB-209-3. […]
GB-209-2 and GB-209-3 were determined for each aliquot and plotted over time for respective pH values in the figure below describing the time course stability of MED6 -189 to conditions of varying pH over time via quantitative analysis of formamide products GB -209-2 and GB-209-3.
Time course stability of MED6 -189 to conditions of varying pH over time via quantitative analysis of formamide products GB -209-2 and GB-209-3. […]

Consider `[C-]#[N+][C@]1(C)CC[C@H]2[C@@H]([C@@H](C(C)C)CC[C@]2(C)[N+]#[C-])[C@H]1O` [MED6-189], for which the 50% inhibitory concentration (IC50) was found to be 0.015 µM in data set [1] (3D7, read-out: IC50 (µM) P. falciparum (3D7)) and 0.014 ± 0.002 µM in data set [1] (3D7, early-ring stage (6 h after invasion), 72 h exposure, read-out: IC50). Also, the “stability to aqueous acidic conditions (hydrolysis to formamides)” value in data set [2] is “reasonable stability”.
